Molecules are shown by their SMILES. Where a name gives a salt, the structure may show the parent alone. Bounds are passed on as bounds.

In one data set the test system is HSV-1. The data set can be described thus: HSV-1 replication in infected Vero 76 cells, DNA hybridization capture assay. In kind it is cell-based, herpes simplex virus 1. To be noted: Human alphaherpesvirus 1, Vero 76. The method, then: Vero 76 cells were maintained in MEM with Earle's salts, L-glutamine, 8% FBS (Hyclone, A-1111-L) and 100 units/mL Penicillin-100 μg/mL Streptomycin. For assay conditions, FBS was reduced to 2%. Cells are seeded into 96-well tissue culture plates at a density of 5×10^4 cells/well after being incubated for 45 min at 37° C. in the presence of HSV-1 or HSV-2 (MOI=0.001). Test compounds are added to the wells and the plates are incubated at 37° C. for 40–48 hours. Cell lysates are prepared as follows: media was removed and replaced with 150 μL/well 0.2 N NaOH with 1% Igepal CA 630 or NP-40. Plates were incubated up to 14 days at room temperature in a humidified chamber to prevent evaporation.
For the detection probe, a gel-purified, digoxigenin-labeled, […] PCR fragment of the HSV UL-15 sequence was utilized. PCR conditions included 0.5 μM primers, 180 μM dTTP, 20 μM dUTP-digoxigenin (Boehringer Mannheim 1558706), 200 μM each of dATP, dCTP, and dGTP, 1×PCR Buffer II (Perkin Elmer), 2.5 mM MgCl2, 0.025 units/μL of AmpliTaq Gold polymerase (Perkin Elmer), and 5 ng of gel-purified HSV DNA per 100 μL. Extension conditions were 10 min at 95° C., followed by 30 cycles of 95° C. for 1 min, 55° C. for 30 sec, and 72° C. for 2 min. The amplification was completed with a 10-min incubation at 72° C. Primers were selected to amplify a 728 bp probe spanning a section of the HSV1 UL 15 open reading frame (nucleotides 249–977). Single-stranded transcripts were purified with Promega M13 Wizard kits. The final product was mixed 1:1 with a mixture of 6 M GuSCN, 100 mM EDTA and 200 μg/mL herring sperm DNA and stored at 4° C.
The capture DNA plasmid (HSV UL13 region in pUC) was linearized by cutting with Xba I, denatured for 15 min at 95° C. and diluted immediately into Reacti-Bind DNA Coating Solution (Pierce, 17250, diluted 1:1 with TE buffer, pH 8) at 1 ng/μL 75 μL/well were added to Corning (#3922 or 9690) white 96-well plates and incubated at room temperature for at least 4 hrs before washing twice with 300 μL/well 0.2×SSC/0.05% Tween-20 (SSC/T buffer). The plates were then incubated overnight at room temperature with 150 μL/well 0.2 N NaOH, 1% IGEPAL and 10 μg/mL herring sperm DNA.
Twenty-seven (27) μL of cell lysate was combined with 45 μL of hybridization solution (final concentration:3M GuSCN, 50 mM EDTA, 100 μg/ml salmon sperm DNA, 5× Denhardt's solution, 0.25×APE, and 5 ng of the digoxigenin-labeled detection probe). APE is 1.5 M NH4-acetate, 0.15 M NH4H2 phosphate, and 5 mM EDTA adjusted to pH 6.0. Mineral oil (50 μL) was added to prevent evaporation. The hybridization plates were incubated at 95° C. for 10 minutes to denature the DNA, then incubated at 42° C. overnight. The wells were washed 6× with 300 μL/well SSC/T buffer then incubated with 75 μL/well anti-digoxigenin-HRP-conjugated antibody (Boehringer Mannheim 1207733, 1:5000 in TE) for 30 min at room temperature. The wells were washed 6× with 300 μL/well with PBS/0.05% Tween-20 before 75 μL/well SuperSignal LBA substrate (Pierce) was added. The plates were incubated at room temperature for 30 minutes and chemiluminescence was measured in a Wallac Victor reader.
The following results were obtained for HSV-1.
A word on the IC50: it is the concentration at which inhibition is half-maximal. For `[H]/N=C(/Nc1cc(Cl)cc2c(-c3ccnc(NC4CCCC4)n3)c(-c3ccc(F)cc3)nn12)NC1CCCC1` [Example 26, N-[5-Chloro-3-[2-(cyclopentylamino)pyrimidin-4-yl]-2-(4-fluorophenyl)pyrazolo[1,5-a]pyridin-7-yl]-N′-cyclopentylguanidine hydrochloride], the IC50 worked out at 260 nM.

The data set is the same for the next values; noted with them: Human alphaherpesvirus 1; HSV-1 (MOI=0.001) in Vero 76 cells, 40–48 hours incubation, HSV DNA hybridization chemiluminescence readout; read-out: IC50.
With `Fc1ccc(-c2nn3c(N4CCCCC4)cc(Cl)cc3c2-c2ccnc(NC3CCCC3)n2)cc1` [Example 24, 4-[5-Chloro-2-(4-fluorophenyl)-7-(1-piperidinyl)pyrazolo[1,5-a]pyridin-3-yl]-N-cyclopentyl-2-pyrimidinamine], the concentration for half-maximal inhibition (IC50) was found to be 120 nM.

As to `Fc1ccc(-c2nn3c(N4CCOCC4)cc(Cl)cc3c2-c2ccnc(NC3CCCC3)n2)cc1` [Example 25, 4-[5-Chloro-2-(4-fluorophenyl)-7-(4-morpholinyl)pyrazolo[1,5-a]pyridin-3-yl]-N-cyclopentyl-2-pyrimidinamine], the half-maximal inhibitory concentration (IC50) is 190 nM.

On to `Fc1ccc(-c2nn3c(NC4CC4)cc(Cl)cc3c2-c2ccnc(NC3CC3)n2)cc1` [Example 27, 5-Chloro-N-cyclopropyl-3-[2-(cyclopropylamino)pyrimidin-4-yl]-2-(4-fluorophenyl)pyrazolo[1,5-a]pyridin-7-amine], for which the concentration for half-maximal inhibition (IC50) came to 1600 nM.

Take `Clc1cccc(-c2nn3c(Cl)cc(Cl)cc3c2-c2ccnc(NC3CCCC3)n2)c1` [Example 28, N-cyclopentyl-4-[5,7-dichloro-2-(3-chlorophenyl)pyrazolo[1,5-a]pyridin-3-yl]-2-pyrimidinamine]: the IC50 came to 3500 nM.

Regarding `Clc1cccc(-c2nn3c(NC4CCCC4)cc(Cl)cc3c2-c2ccnc(NC3CCCC3)n2)c1` [Example 29, N-{4-[5-chloro-2-(3-chlorophenyl)-7-(cyclopentylamino)pyrazolo[1,5-a]pyridin-3-yl]-2-pyrimidinyl}-N-cyclopentylamine], the half-maximal inhibitory concentration (IC50) is 350 nM.

For the compound `COc1ccc(-c2nn3c(NC4CC4)cc(Cl)cc3c2-c2ccnc(NC3CCCC3)n2)cc1` [Example 30, N-{4-[5-Chloro-7-(cyclopropylamino)-2-(4-methoxyphenyl)pyrazolo[1,5-a]pyridin-3-yl]-2-pyrimidinyl}-N-cyclopentylamine], the IC50 came out at 330 nM.

As to `Oc1ccc(-c2nn3c(NC4CC4)cc(Cl)cc3c2-c2ccnc(NC3CCCC3)n2)cc1` [Example 31, 4-[5-Chloro-3-[2-(cyclopentylamino)-4-pyrimidinyl]-7-(cyclopropylamino)pyrazolo[1,5-a]pyridin-2-yl]phenol], the IC50 is 1500 nM.

On to `Clc1cc(NC2CC2)n2nc(-c3ccc(OCC4CC4)cc3)c(-c3ccnc(NC4CCCC4)n3)c2c1` [Example 32, 5-Chloro-3-[2-(cyclopentylamino)-4-pyrimidinyl]-N-cyclopropyl-2-[4-(cyclopropylmethoxy)phenyl]pyrazolo[1,5-a]pyridin-7-amine], for which the IC50 is 800 nM.

For the compound `Oc1ccc(-c2nn3c(NC4CCCC4)cc(Cl)cc3c2-c2ccnc(NC3CCCC3)n2)cc1` [Example 33, 4-[5-Chloro-3-[2-(cyclopentylamino)-4-pyrimidinyl]-7-(cyclopentylamino)pyrazolo[1,5-a]pyridin-2-yl]phenol], the IC50 was determined as 800 nM.

Turning to `Clc1cc(NC2CCCC2)n2nc(-c3ccc(OCC4CC4)cc3)c(-c3ccnc(NC4CCCC4)n3)c2c1` [Example 34, 5-Chloro-3-[2-(cyclopentylamino)-4-pyrimidinyl]-N-cyclopentyl-2-[4-(cyclopropylmethoxy)phenyl]pyrazolo[1,5-a]pyridin-7-amine], the IC50 turned out to be 120 nM.

For `COc1ccc(-c2nn3c(Cl)cc(Cl)cc3c2-c2ccnc(SC)n2)cc1` [Example 35, 5,7-dichloro-2-(4-methoxyphenyl)-3-[2-(methylthio)pyrimidin-4-yl]pyrazolo[1,5-a]pyridine], the IC50 is above 40000 nM.

Consider `COc1ccc(-c2nn3c(NC4CCCC4)cc(Cl)cc3c2-c2ccnc(SC)n2)cc1` [Example 36, N-{5-Chloro-2-(4-methoxyphenyl)-3-[2-(methylsulfanyl)-4-pyrimidinyl]pyrazolo[1,5-a]pyridin-7-yl}-N-cyclopentylamine], for which the IC50 was found to be 22000 nM.

With `COc1ccc(-c2nn3c(NC4CCCC4)cc(Cl)cc3c2-c2ccnc([S+](C)[O-])n2)cc1` (stereo not drawn) [Example 37, N-{5-Chloro-2-(4-methoxyphenyl)-3-[2-(methylsulfinyl)-4-pyrimidinyl]pyrazolo[1,5-a]pyridin-7-yl}-N-cyclopentylamine], the IC50 came to 6000 nM.

Take `COc1ccc(-c2nn3c(NC4CCCC4)cc(Cl)cc3c2-c2ccnc(NC3CC3)n2)cc1` [Example 38, N-{4-[5-Chloro-7-(cyclopentylamino)-2-(4-methoxyphenyl)pyrazolo[1,5-a]pyridin-3-yl]-2-pyrimidinyl}-N-cyclopropylamine]: the 50% inhibitory concentration (IC50) turned out to be 340 nM.

`Oc1ccc(-c2nn3c(NC4CCCC4)cc(Cl)cc3c2-c2ccnc(NC3CC3)n2)cc1` [Example 39, 4-{5-Chloro-7-(cyclopentylamino)-3-[2-(cyclopropylamino)-4-pyrimidinyl]pyrazolo[1,5-a]pyridin-2-yl}phenol]: the IC50 was found to be 2000 nM.

`Clc1cc(NC2CCCC2)n2nc(-c3ccc(OCC4CC4)cc3)c(-c3ccnc(NC4CC4)n3)c2c1` [Example 40, N-(4-{5-Chloro-7-(cyclopentylamino)-2-[4-(cyclopropyl-methoxy)phenyl]pyrazolo[1,5-a]pyridin-3-yl}-2-pyrimidinyl)-N-cyclopropylamine]: the IC50 came out at 1300 nM.

`Fc1ccc(-c2nn3c(Cl)cc(NC4CCCC4)cc3c2-c2ccnc(NC3CCCC3)n2)cc1` [Example 41, 7-Chloro-N-cyclopentyl-3-[2-(cyclopentylamino)pyrimidin-4-yl]-2-(4-fluorophenyl)pyrazolo[1,5-a]pyridin-5-amine]: the IC50 amounted to 1300 nM.

For `Fc1ccc(-c2nn3c(NC4CCCC4)c(Br)cc(Br)c3c2-c2ccnc(NC3CCCC3)n2)cc1` [Example 42, 4,6-Dibromo-N-cyclopentyl-3-[2-(cyclopentylamino)pyrimidin-4-yl]-2-(4-fluorophenyl)pyrazolo[1,5-a]pyridin-7-amine], the IC50 was 20000 nM.

With `Fc1ccc(-c2nn3c(NC4CCCC4)c(Br)cc(Br)c3c2-c2nc(NC3CCCC3)ncc2Br)cc1` [Example 43, 4,6-Dibromo-3-[5-bromo-2-(cyclopentylamino)pyrimidin-4-yl]-N-cyclopentyl-2-(4-fluorophenyl)pyrazolo[1,5-a]pyridin-7-amine], the IC50 was above 40000 nM.

`Fc1ccc(-c2nn3c(NC4CCCC4)c(Cl)ccc3c2-c2ccnc(NC3CCCC3)n2)cc1` [Example 44, 6-Chloro-N-cyclopentyl-3-[2-(cyclopentylamino)pyrimidin-4-yl]-2-(4-fluorophenyl)pyrazolo[1,5-a]pyridin-7-amine]: the IC50 came to 900 nM.

With `COc1cc(NC2CCCC2)n2nc(-c3ccc(F)cc3)c(-c3ccnc(NC4CCCC4)n3)c2c1` [Example 45, N-Cyclopentyl-3-[2-(cyclopentylamino)-4-pyrimidinyl]-2-(4-fluorophenyl)-5-methoxypyrazolo[1,5-a]pyridin-7-amine], the half-maximal inhibitory concentration (IC50) was determined as 150 nM.

For the compound `COCCOc1cc(NC2CCCC2)n2nc(-c3ccc(F)cc3)c(-c3ccnc(NC4CCCC4)n3)c2c1` [Example 46, N-Cyclopentyl-3-[2-(cyclopentylamino)-4-pyrimidinyl]-2-(4-fluorophenyl)-5-(2-methoxyethoxy)pyrazolo[1,5-a]pyridin-7-amine], the concentration for half-maximal inhibition (IC50) was 130 nM.

Tested on in another data set: not given
Experiment: not given
Conditions: not given
One may read the melting point as the temperature, or range, at which the solid turns liquid. Take `COc1cc(NC2CCCC2)n2nc(-c3ccc(F)cc3)c(-c3ccnc(NC4CCCC4)n3)c2c1` [Example 45, N-Cyclopentyl-3-[2-(cyclopentylamino)-4-pyrimidinyl]-2-(4-fluorophenyl)-5-methoxypyrazolo[1,5-a]pyridin-7-amine]: the melting point was in the range of 167 to 169 °C.

For the origin of these results see patent US7030134B2, “Pyrazolopyridinyl pyridine and pyrimidine therapeutic compounds” (SmithKline Beecham Corporation, priority 2001, dated 2006).
